Test results from patent publication US20240075093A1, “COMPOSITIONS AND METHODS OF TREATING A PI3K MEDIATED DISEASE” (VIRGINIA TECH INTELLECTUAL PROPERTIES, INC., priority 2020, published 2024).
Where no end group is shown, it is not given here.

Key:
MDA-MB-435S cells = assay: melanoma cell viability (CellTiter Blue); assay type: cell-based; conditions: 0-40 μM, CellTiter Blue
Protocol: (§1) (FIG. 49A) Immunoblotting of p110s and signaling molecules. 3-actin (ACTB) was used as the loading control. (FIG. 49B) Summary of genetic mutations and protein levels in melanoma cells. Information regarding hot spot mutations was retrieved from e.g., DepMap. (FIG. 49C) Cells were treated with 0-40 μM of inhibitors. Cell viability was measured using CellTiter Blue. IC50s were calculated using Graphpad.
(§2) (FIG. 52A) Cells were treated with 10 μM Selectide-18-FITC for 1 h and imaged immediately or after 96h. (FIG. 52B) Selectide-18-FITC in melanoma cells were imaged at different times. FITC was quantified using Image J and FITC intensities at different times were normalized with that at 1 h. Half-life was calculated using GraphPad. (FIG. 52C) UACC-62, MelST, or MeWo cells were treated with 50 μM of Selectide-18 for 4 days with daily repeated dosing. (FIG. 52D) MelST or melanoma cells were treated with 50 μM of Selectide-18 for 6 days with daily repeated dosing. Cell viability was measured using Cell-Titer Blue. (FIG. 52E) MelST, UACC-62, or MeWo cells were treated with Scramble or Selectide-18 at different doses. IC50s were calculated using GraphPad. (FIG. 52F) Nod scid mice bearing UACC-62 subcutaneous tumors were treated with Selectide-18 (3 mg/kg) intratumoral injection/daily) for 16 days. Tumors were measured using a caliper and tumor volumes were calculated as (length×width2))/2. Student t test or ANOVA was used to determine P values. ns: not significant; **: P<0.01; ***P<0.001.

p110β^hyper cells = assay: melanoma cell viability (CellTiter Blue); assay type: cell-based; conditions: 0-40 μM of inhibitors; for selective inhibition of cell viability: p110β^hyper cells versus MelST
Protocol: as §1, §2

PI3K in SK-MEL-94 cells = assay: PI3K activity in melanoma cells (immunoblotting); assay type: cell-based; conditions: 10 μM AZD6482
PI3K in SK-MEL-147 cells = assay: PI3K activity in melanoma cells (immunoblotting); assay type: cell-based; conditions: 10 μM AZD6482
LN229/GSCs [1] = assay: wound-healing (migration) assay; assay type: cell-based; conditions: 8 μM, 24 hours
Protocol: (§3) (FIG. 8A) Wound-healing assay. Cells were plated confluently and then treated with PI3K isoform-selective inhibitors at 8 μM for 24 hours. Cells were imaged at 0- and 24-hour time point. Images of 24-hour time point are shown. Scale bar: […]. (FIG. 8B-8D) Quantification of migration distance. Images from three different areas were analyzed using Image J. Migration distances were obtained by subtracting 24-hour measurements with those of 0-hour.

SF295 cells [2] = assay: wound-healing (migration) assay; assay type: cell-based; conditions: 8 μM, 24 hours
Protocol: as §3

tumor growth in mice = assay: GBM tumor growth in mice; assay type: in vivo
AKT = AKT activation in GBM cells; assay type: cell-based
LN229/GSCs [3] = assay: TMZ sensitivity of LN229/GSCs; assay type: cell-based; conditions: Homo sapiens, LN-229
p110b = p110b (Homo sapiens, UniProt P42338); assay: p110b activity ELISA (cell-free kinase assay); assay type: biochemical; conditions: ELISA; for activity of p110b: 100 nM, isolated protein subunit
Chain of p110b (P42338 whole entry): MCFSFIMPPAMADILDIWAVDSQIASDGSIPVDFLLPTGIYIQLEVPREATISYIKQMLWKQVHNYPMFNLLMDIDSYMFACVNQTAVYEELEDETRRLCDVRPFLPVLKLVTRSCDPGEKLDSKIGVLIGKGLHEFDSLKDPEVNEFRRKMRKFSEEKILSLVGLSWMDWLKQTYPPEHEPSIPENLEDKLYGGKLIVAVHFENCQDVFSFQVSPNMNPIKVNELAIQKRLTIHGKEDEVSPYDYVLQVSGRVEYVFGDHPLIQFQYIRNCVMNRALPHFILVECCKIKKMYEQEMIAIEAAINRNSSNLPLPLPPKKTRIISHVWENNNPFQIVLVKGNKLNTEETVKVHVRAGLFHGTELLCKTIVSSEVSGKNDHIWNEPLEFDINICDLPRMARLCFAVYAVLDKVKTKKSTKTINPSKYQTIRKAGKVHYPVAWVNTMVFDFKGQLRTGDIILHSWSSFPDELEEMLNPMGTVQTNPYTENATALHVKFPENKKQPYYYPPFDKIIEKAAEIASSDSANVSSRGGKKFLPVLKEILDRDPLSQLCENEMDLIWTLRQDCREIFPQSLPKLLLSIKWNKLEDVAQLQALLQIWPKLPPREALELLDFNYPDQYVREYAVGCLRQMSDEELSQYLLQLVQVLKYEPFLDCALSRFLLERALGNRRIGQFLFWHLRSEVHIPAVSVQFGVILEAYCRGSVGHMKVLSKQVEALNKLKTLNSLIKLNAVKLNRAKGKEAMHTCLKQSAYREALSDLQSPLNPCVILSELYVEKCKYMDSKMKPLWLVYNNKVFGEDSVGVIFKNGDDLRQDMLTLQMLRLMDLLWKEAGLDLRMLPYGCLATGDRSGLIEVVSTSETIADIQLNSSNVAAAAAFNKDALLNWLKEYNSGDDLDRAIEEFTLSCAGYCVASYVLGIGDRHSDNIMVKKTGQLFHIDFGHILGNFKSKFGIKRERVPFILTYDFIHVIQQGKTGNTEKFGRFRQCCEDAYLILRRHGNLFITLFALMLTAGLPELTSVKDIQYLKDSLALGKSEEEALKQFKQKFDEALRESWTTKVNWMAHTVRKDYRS
Text: The activity of the p110b PI3K catalytic subunit was monitored via ELISA upon increasing doses of Ante-Selectide-18.
(§4) Relative activity is the ratio of respective treated groups to their non-treated controls.
(FIG. 51A) 3D of a p110β/p85α complex determined by SWISS-MODEL and Cluspro. (FIG. 51B) Protein sequences were aligned using COBALT. C2 domains (top) are show. Red bars: same residues; Grey bars: different residues; Red lines: missing residues. […] in p110β C2 (bottom) is shown and termed as 018. Docking of p110β and p85α (FIG. 51C) or p110α and p85α (FIG. 51D) was done by SWISS-MODEL, Cluspro, and Chimera. The 018 motif is labeled in magenta. Deletion of β18 motif (FIG. 51E) changed the 3D shapes of p110β/p85 (FIG. 51C). (FIG. 51F) p110β cell-free kinase assay. An enzyme-linked immunosorbent assay (ELISA) was used to measure levels of lipids PIP2/PIP3. (FIG. 51G) Effect of PI3K inhibitors on p110s using ELISA. p110β (FIG. 51H) or p110α (FIG. 51I) was docked with Selectide-18-bound p85α using Cluspro/Chimera.
(§5) Applicant also included a control scramble peptide containing the antennapedia sequence followed by the amino acid sequence of Ante-Selectide-18 randomly scrambled. […] Applicant reports that this drug is not effective at inhibiting the kinase activity of p110b or other PI3K subunits at 100 nM, showing the promise of the Ante-Selectide-18 peptide as a potent selective p110b inhibitor at a low dose.

p110c = p110c (Homo sapiens, UniProt P42336); assay: PI3K subunit activity ELISA; assay type: biochemical; conditions: 100 nM
Chain of p110c (P42336 whole entry): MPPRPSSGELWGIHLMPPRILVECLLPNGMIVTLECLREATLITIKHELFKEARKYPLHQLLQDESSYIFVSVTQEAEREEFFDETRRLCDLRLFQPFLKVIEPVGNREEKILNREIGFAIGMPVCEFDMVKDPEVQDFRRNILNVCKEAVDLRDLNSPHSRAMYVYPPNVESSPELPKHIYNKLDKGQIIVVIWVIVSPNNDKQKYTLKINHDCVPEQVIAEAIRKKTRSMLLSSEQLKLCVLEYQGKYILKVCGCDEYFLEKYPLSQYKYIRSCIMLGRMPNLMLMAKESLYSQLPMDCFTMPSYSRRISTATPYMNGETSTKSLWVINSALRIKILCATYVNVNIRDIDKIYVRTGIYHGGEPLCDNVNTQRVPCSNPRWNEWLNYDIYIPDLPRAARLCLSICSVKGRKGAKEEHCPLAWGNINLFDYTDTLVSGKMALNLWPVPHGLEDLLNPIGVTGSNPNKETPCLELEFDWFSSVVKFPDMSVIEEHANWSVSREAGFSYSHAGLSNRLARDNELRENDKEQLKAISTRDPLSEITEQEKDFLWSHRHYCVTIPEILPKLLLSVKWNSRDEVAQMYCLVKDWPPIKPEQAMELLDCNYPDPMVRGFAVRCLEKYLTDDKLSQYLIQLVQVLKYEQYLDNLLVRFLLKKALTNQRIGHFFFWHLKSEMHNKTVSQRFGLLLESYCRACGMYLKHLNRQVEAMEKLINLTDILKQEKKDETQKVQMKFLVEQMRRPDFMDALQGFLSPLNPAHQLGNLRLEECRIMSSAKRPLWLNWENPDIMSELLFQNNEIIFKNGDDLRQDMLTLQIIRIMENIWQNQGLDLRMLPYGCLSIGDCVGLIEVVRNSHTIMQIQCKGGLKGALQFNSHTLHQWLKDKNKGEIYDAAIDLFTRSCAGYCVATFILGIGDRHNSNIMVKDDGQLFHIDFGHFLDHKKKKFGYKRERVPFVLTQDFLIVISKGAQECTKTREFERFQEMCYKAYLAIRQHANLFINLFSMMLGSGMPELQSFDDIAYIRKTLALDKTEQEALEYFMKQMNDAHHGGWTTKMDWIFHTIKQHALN
Protocol: as §4, §5

p110γ = p110γ (Homo sapiens, UniProt P48736); assay: PI3K subunit activity ELISA; assay type: biochemical; conditions: 100 nM
Chain of p110γ (P48736 whole entry): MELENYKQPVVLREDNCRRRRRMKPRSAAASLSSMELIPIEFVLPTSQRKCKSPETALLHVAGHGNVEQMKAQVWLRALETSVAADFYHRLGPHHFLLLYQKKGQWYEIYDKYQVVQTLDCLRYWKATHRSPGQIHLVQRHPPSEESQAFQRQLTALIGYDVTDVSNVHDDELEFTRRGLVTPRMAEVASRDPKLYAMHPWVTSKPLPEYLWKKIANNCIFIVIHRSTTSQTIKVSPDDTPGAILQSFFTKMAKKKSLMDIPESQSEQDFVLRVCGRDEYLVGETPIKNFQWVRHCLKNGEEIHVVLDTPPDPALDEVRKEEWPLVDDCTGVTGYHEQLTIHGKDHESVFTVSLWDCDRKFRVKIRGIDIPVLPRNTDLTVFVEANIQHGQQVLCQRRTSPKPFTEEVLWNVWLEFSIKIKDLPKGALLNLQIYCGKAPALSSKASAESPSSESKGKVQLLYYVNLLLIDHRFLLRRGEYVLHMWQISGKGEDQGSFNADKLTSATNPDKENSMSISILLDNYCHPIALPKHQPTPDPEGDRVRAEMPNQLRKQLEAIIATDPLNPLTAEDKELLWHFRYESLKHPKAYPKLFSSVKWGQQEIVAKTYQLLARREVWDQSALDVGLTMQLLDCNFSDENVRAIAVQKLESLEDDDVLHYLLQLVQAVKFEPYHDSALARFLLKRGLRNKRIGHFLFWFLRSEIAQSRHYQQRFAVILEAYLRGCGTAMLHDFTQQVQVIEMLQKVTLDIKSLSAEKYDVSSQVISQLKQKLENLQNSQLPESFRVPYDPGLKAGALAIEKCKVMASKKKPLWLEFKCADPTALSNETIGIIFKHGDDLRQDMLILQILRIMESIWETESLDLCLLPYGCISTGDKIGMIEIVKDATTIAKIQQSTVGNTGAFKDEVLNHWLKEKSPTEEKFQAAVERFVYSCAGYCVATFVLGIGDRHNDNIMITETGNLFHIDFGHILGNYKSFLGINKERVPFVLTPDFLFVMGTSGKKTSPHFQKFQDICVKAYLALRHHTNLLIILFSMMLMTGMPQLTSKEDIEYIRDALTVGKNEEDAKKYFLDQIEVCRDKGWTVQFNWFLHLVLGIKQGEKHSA
Protocol: as §4, §5

p110δ = p110δ (Homo sapiens, UniProt O00329); assay: PI3K subunit activity ELISA; assay type: biochemical; conditions: 100 nM
Chain of p110δ (O00329 whole entry): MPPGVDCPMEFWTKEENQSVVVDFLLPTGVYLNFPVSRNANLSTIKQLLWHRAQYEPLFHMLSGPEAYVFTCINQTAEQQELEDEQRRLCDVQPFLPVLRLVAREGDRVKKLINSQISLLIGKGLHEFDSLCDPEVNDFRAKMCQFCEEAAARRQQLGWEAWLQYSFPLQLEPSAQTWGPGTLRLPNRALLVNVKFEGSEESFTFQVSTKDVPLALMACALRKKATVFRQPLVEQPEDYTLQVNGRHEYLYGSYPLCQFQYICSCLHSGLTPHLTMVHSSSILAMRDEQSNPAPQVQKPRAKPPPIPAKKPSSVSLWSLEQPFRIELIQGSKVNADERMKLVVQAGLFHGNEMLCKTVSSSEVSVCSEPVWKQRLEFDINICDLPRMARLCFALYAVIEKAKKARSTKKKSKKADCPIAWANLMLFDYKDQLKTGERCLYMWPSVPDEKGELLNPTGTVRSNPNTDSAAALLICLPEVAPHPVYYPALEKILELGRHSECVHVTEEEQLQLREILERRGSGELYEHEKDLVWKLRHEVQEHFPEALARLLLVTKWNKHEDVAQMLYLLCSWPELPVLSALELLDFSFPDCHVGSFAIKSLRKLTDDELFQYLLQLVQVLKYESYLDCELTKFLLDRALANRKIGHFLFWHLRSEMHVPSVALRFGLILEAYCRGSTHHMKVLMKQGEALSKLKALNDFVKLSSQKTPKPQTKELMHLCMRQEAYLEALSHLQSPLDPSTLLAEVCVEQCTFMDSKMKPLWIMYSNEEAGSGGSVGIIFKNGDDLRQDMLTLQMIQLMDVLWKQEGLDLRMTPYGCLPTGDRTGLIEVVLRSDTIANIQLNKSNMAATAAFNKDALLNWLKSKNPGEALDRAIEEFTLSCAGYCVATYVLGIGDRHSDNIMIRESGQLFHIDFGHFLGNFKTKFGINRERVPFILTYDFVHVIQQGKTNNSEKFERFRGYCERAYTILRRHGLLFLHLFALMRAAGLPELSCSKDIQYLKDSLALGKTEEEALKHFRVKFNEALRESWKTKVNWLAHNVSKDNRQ
Chain of p110δ (P27986 whole entry partner): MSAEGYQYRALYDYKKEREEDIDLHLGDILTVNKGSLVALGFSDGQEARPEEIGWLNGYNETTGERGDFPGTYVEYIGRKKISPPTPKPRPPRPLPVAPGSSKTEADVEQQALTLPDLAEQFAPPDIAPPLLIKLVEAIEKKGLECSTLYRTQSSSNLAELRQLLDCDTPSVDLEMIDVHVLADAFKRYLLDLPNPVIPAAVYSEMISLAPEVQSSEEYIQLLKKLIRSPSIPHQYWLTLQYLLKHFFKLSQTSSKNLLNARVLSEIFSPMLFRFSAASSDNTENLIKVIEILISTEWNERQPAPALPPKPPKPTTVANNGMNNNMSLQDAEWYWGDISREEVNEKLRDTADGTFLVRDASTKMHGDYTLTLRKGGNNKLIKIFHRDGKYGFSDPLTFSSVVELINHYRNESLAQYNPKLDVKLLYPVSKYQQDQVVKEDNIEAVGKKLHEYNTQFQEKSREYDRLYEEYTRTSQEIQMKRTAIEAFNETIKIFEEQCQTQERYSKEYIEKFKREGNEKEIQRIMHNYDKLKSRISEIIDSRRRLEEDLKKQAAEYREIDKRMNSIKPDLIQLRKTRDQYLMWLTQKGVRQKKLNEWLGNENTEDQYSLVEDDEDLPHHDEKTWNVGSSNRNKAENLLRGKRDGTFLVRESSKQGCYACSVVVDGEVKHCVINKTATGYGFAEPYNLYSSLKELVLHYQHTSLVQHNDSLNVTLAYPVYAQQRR
Protocol: as §4, §5

[4] = test system: PI3K/AKT signaling in SF295 cells; assay: immunoblotting of PI3K/AKT signaling in SF295 cells; assay type: cell-based; conditions: for AKT activity: 100 μM peptide
Protocol: SF295 cells were treated with 200 μM Ante-Selectide-18 for 4 days with a replenishment of fresh peptide every day. The vehicle was used as the control. PI3K/AKT signaling was analyzed using immunoblotting. Three signaling pathways (GSK3b, RAC1/CDC42, and MTOR) are shown. ACTB is the loading control.
Invasion molecules RAC1/CDC42 and MMPs are shown. Images were quantified using Image J. 0 h time point is set as 1.0. […] Apoptosis molecules FOXO3, BIM, and c-CASP3 are shown. (FIG. 9C) Invasion/survival signaling downstream of p110p.
(§6) (FIG. 12A) p110βC2in. CPP: cell-penetrating peptide. Simulated p110βC2in (rainbow as represented in greyscale) is shown. (FIG. 12B) FITC-p110βC2in in LN229/GSCs was imaged using a fluorescence microscope. Upper: FITC; lower: bright view. (FIG. 12C) PI3K/AKT activity affected by 100 μM p110βC2in (+) or C2Scramble-1 (−). (FIG. 12D) MTS Cell viability assay. Cells were treated with 50 μM peptides for 4 days. Student t test was used to determine P values.
In FIG. 3 Applicant tested whether Ante-Selectide-18 affects PI3K signaling in GBM cells. […] In contrast, another PI3K/AKT downstream target MTOR was not inhibited by this peptide.

SF295 cells [5] = assay: MTS cell viability assay; assay type: cell-based; conditions: 50 μM peptides, 4 days
Protocol: as §6
Cell viability was measured by the MTS assay. P values were determined using the student t test or one-way ANOVA. Error bars represent three independent experiments.
This scheme has been repeated in experiments presented hereafter. Cell viability was determined using the MTS viability assay. Percentages of cell viability were obtained by normalizing the MTS readings of treatment groups to that of DMSO group. (FIG. 34B) Scores of Excess Over Bliss (EOB) calculated using the Bliss Independence model. The drug combination is synergistic if EOB is more than 0%, additive if EOB equals to 0%, or antagonistic if EOB is less than 0%. […] (FIG. 34D) EOB scores of drug combinations in LN229 and VTC-001 cells. (FIG. 34E) Caspase 3/7 activity in VTC-103 and VTC-001 cells. The activity of cleaved caspase 3/7 (active) was determined using a luminescence assay. Shown are luminescence readings. (FIG. 34F) EOB scores of drug combinations in VTC-103 and VTC-001 cells. […] SF295 cells were subcutaneously injected into immuno-deficient mice. […] Tumor volumes are shown. […] Cell viability was determined using the MTS viability assay. Percentages of cell viability were obtained by normalizing the MTS readings of treatment groups to that of shNS group. […]
Cell viability was determined by the MTS cell viability assay (Promega) as described previously 21,24-27. […] At each hour time point, the absorbance at 490 nm was measured using a FilterMax F3 microplate reader (Molecular Devices, LLC) according to the manufacturer's instructions. Percent cell viability was obtained by dividing the absorbance of treatment groups to those of untreated and respective vehicle control groups.

[6] = 200 μM, 4 days, fresh peptide every day

Q: Which results are given for `Cc1cc([C@@H](C)Nc2ccccc2C(=O)O)c2nc(N3CCOCC3)cc(=O)n2c1` [AZD6482]?
A: sensitivity to AZD6482 (MDA-MB-435S cells): not sensitive and not; cytotoxicity (p110β^hyper cells; CellTiter Blue): cytotoxic; PI3K activity (PI3K in SK-MEL-94 cells): inactivated PI3K; PI3K activity (PI3K in SK-MEL-147 cells): not

Q: `Nc1cc(C(F)(F)F)c(-c2cc(N3CCOCC3)nc(N3CCOCC3)n2)cn1` [BKM120] was tested. Which cell migration (LN229/GSCs [1]) did it give?
A: inhibited the migration

Q: And the cell migration (SF295 cells [2])?
A: inhibited the migration

Q: Which “selective inhibition of cell viability” value (p110β^hyper cells) does the source give for `CC(C)(C)NS(=O)(=O)c1cncc(-c2cc(F)c3nc(N)nn3c2)c1` [CZC24832] here?
A: did not show a selective inhibition of cell viability

Q: Which “tumor growth in mice” value (tumor growth in mice) does the source give for `Cc1c(Cn2c(C)nc3c(C(=O)O)cc(N4CCOCC4)cc32)cccc1C(F)(F)F` [GSK2636771] here?
A: slow down tumor growth

Q: For `Nc1nc2cc(-c3ccc4ncc(C(=O)N5CCOCC5)n4c3)ccc2o1` [MLN1117], which “selective inhibition of cell viability” value (p110β^hyper cells) is on record?
A: did not show a selective inhibition of cell viability

Q: `Cc1ccc([N+](=O)[O-])cc1S(=O)(=O)N(C)/N=C/c1cnc2ccc(Br)cn12` [PIK-75] was tested. Which “AKT activation / selectivity” value (AKT) did it give?
A: non-selectively inhibits AKT and ERK

Q: With `Cn1nnc2c(C(N)=O)ncn2c1=O` [TMZ, temozolomide] as the compound, how does the IC50 (LN229/GSCs [3]) read?
A: 100 µM

Q: How did the “activity of p110b” value (p110b) turn out when “IYKTSKTRSQKTKIKPNT (Scrambled control peptide) [scrambled peptide]” was run?
A: didn't inactivate p110β

Q: What does the source list for “RQPKIWFPNRRKPWKKTKKSTKTINPSKYQTIRK [Ante-Selectide-18]”?
A: activity of p110b (p110b): inhibits the activity; activity of p110b (p110b; listed as ante-Selectide-18): Only Inhibits p110b; IC50 (p110b; increasing doses): 0.105 µM; activity of PI3K subunit p110c (p110c): does not affect; activity of PI3K subunit p110γ (p110γ): does not affect; activity of PI3K subunit p110δ (p110δ): does not affect; MTOR (PI3K/AKT downstream target) [4, 6]: not inhibited; active forms of GSK3b and RAC1/CDC42 [4, 6]: remarkable decrease; levels of phosphorylated form of AKT [4, 6]: substantially reduced

Q: With “RRRRRRRRTKKSTKTINPSKYQTIRK (p110bC2in - Selectide-18 with a cell penetrating peptide) [p110βC2in]” as the compound, how does the AKT activity [4] read?
A: blocked AKT activity

Q: And the cell viability (SF295 cells [5])?
A: suppressed cell viability

Q: How did the AKT activity [4] turn out when “scramble peptide: control C2Scramble peptide, e.g. TYKTSKRISKQTIKKPNT fused with RRRRRRRR (IYKTSKTRSQKTKIKPNT)” was run?
A: not

Q: What about the cell viability (SF295 cells [5]) of the same compound?
A: not
